Consider 12 molecules from ChEMBL document CHEMBL1139973, “Synthesis and structure-activity relationships of taxuyunnanine C derivatives as multidrug resistance modulator in MDR cancer cells” (Bioorg Med Chem Lett, 2007).

pIC50: −log10 of the molar value. Some results are limits rather than exact numbers.

For orientation: pIC50 means the negative decadic logarithm of the IC50, by convention in mol/L.

One data set deals with HepG2. In words: Growth inhibition of human HepG2 cells. In kind it is functional, cell-based.
The target of data set [1] is T1, ATP-dependent translocase ABCB1 (Homo sapiens, UniProt P08183). Nature of the data set: Inhibition of Pgp in multidrug-resistant human 2780AD cells assessed as vincristine accumulation at 0.1 ug/mL relative to control. It is filed as cell-based. Also on record: scale not given: the % may be the effect or the level left. As to conditions: a2780 adr.
T1 sequence (P08183 whole entry): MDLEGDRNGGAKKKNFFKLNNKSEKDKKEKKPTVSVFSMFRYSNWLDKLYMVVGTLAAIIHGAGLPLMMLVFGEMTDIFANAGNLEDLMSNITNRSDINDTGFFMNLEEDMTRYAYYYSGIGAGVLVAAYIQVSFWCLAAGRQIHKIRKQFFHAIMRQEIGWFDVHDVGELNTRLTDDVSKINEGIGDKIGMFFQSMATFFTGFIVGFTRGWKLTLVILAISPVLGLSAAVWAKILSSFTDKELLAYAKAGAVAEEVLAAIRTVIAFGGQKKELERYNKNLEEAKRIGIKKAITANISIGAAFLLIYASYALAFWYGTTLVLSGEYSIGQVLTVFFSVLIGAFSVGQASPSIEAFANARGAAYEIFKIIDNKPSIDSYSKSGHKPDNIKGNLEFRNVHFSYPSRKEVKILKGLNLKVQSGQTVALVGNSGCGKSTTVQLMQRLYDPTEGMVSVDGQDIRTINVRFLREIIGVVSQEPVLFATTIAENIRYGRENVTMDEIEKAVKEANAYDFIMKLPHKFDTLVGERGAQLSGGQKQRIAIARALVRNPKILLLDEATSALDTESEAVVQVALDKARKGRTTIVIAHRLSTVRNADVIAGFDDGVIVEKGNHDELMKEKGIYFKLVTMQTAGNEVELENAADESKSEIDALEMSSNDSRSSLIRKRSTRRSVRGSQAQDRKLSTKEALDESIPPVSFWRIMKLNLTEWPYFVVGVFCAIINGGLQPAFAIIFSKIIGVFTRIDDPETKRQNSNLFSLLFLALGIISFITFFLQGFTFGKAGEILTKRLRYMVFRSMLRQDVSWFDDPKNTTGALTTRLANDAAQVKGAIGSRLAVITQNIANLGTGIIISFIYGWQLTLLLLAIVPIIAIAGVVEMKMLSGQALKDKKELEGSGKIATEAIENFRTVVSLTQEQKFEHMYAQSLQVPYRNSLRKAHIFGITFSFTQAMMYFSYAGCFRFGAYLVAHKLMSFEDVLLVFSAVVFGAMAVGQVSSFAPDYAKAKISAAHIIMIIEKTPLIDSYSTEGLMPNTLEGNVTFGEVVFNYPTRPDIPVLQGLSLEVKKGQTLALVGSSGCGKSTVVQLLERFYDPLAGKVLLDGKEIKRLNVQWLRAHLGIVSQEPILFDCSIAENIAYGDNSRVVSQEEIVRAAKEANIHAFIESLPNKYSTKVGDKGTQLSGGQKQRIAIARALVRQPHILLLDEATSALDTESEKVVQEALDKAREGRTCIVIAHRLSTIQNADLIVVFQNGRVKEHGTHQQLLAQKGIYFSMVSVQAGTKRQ
In data set [2] the target is T1, ATP-dependent translocase ABCB1. In words: Inhibition of Pgp in multidrug-resistant human 2780AD cells assessed as vincristine accumulation at 0.1 ug/mL relative to verapamil. In kind it is cell-based. Further details: scale not given: the % may be the effect or the level left. As to conditions: a2780 adr.
In the next data set the test system is WI-38 VA13. In words: Growth inhibition of human VA13 cells. It is filed as functional, cell-based.
The target in data set [3] is T1, ATP-dependent translocase ABCB1. Nature of the data set: Inhibition of Pgp in multidrug-resistant human 2780AD cells assessed as calcein accumulation at 25 ug/mL relative to control. It is filed as cell-based. As to conditions: a2780 adr. Further details: scale not given: the % may be the effect or the level left.
For data set [4] the target is unchanged. In words: Inhibition of Pgp in multidrug-resistant human 2780AD cells assessed as calcein accumulation at 0.25 ug/mL relative to control. It is filed as cell-based. Further details: scale not given: the % may be the effect or the level left. To be noted: a2780 adr.
For data set [5] the target is unchanged. Nature of the data set: Inhibition of Pgp in multidrug-resistant human 2780AD cells assessed as vincristine accumulation at 1.0 ug/mL relative to verapamil. It is filed as cell-based. Further details: scale not given: the % may be the effect or the level left. To be noted: a2780 adr.
Data set [6] in a line: Growth inhibition of human WI38 cells. In kind it is cell-based. As to conditions: WI-38.
Data set [7] addresses T1, ATP-dependent translocase ABCB1. In words: Inhibition of Pgp in multidrug-resistant human 2780AD cells assessed as vincristine accumulation at 1.0 ug/mL relative to control. It is filed as cell-based. Also on record: scale not given: the % may be the effect or the level left. As to conditions: a2780 adr.
For data set [8] the target is unchanged. Nature of the data set: Inhibition of Pgp in multidrug-resistant human 2780AD cells assessed as vincristine accumulation at 10 ug/mL relative to control. In kind it is cell-based. Further details: scale not given: the % may be the effect or the level left. As to conditions: a2780 adr.
Data set [9] has the same target. In words: Inhibition of Pgp in multidrug-resistant human 2780AD cells assessed as vincristine accumulation at 10 ug/mL relative to verapamil. To be noted: a2780 adr. In kind it is cell-based. Also on record: scale not given: the % may be the effect or the level left.
Data set [10] shares this target. In words: Inhibition of Pgp in multidrug-resistant human 2780AD cells assessed as calcein accumulation at 2.5 ug/mL relative to control. It is filed as cell-based. Also on record: scale not given: the % may be the effect or the level left. To be noted: a2780 adr.
Data set [11] is described as follows: Growth inhibition of multidrug-resistant human 2780AD cells. In kind it is functional, cell-based. To be noted: A2780 ADR.
The test system of data set [12] is A2780. Nature of the data set: Growth inhibition of human A2780 cells. In kind it is functional, cell-based.
The subject of data set [13] is A2780. In words: Cytotoxicity against human A2780 cells assessed as cell viability at 0.2 uM. As to conditions: read-out: Activity. In kind it is functional.
A short description of data set [14]: Cytotoxicity against multidrug-resistant human 2780AD cells assessed as cell viability at 10 uM. It is filed as functional. To be noted: A2780 ADR, read-out: Activity.
The nature of data set [15]: Cytotoxicity against multidrug-resistant human 2780AD cells assessed as cell viability at 2 uM. In kind it is functional. To be noted: A2780 ADR, read-out: Activity.
The subject of data set [16] is A2780. Nature of the data set: Cytotoxicity against human A2780 cells assessed as cell viability at 10 uM. In kind it is functional. To be noted: read-out: Activity.
Data set [17] can be described thus: Cytotoxicity against multidrug-resistant human 2780AD cells assessed as cell viability at 0.2 uM. To be noted: A2780 ADR, read-out: Activity. In kind it is functional.
In data set [18] the test system is A2780. In words: Cytotoxicity against human A2780 cells assessed as cell viability at 2 uM. In kind it is functional. As to conditions: read-out: Activity.

In the case of `C=C1[C@@H](OC(C)=O)CC[C@@]2(C)C[C@H](OC(=O)/C=C/c3ccccc3)C3=C(C)C[C@H](OC(C)=O)[C@@H]([C@@H](OC(C)=O)[C@H]12)C3(C)C`, the negative logarithm of the IC50 (pIC50) is 3.97 in the data set on HepG2, less than 3.77 in the data set on WI-38 VA13 and less than 3.77 in data set [6]. Moreover, the Activity in [1] is reported as 132%; in [2], 130%; in [3], 126%; in data set [4], 92%; in data set [5] it was 118%; in data set [7], 209%. Moreover, the Activity is given as 451% in data set [8], 81% in data set [9] and 123% in data set [10].

On to `COc1cccc2c1C(=O)c1c(O)c3c(c(O)c1C2=O)C[C@@](O)(C(=O)CO)C[C@@H]3O[C@H]1C[C@H](N)[C@H](O)[C@H](C)O1` [DOXORUBICIN], for which the pIC50 in [11] is 6.53; in the data set with A2780 [12], 8.24.

`C=C1[C@@H](OC(C)=O)CC[C@@]2(C)C[C@H](OC(C)=O)C3=C(C)C[C@H](O)[C@@H]([C@@H](OC(C)=O)[C@H]12)C3(C)C`: the pIC50 in the data set with HepG2 is 3.67; with WI-38 VA13, 4.10; in data set [6] it was 3.88. In addition, the viability at 0.2 µM is 97% in the data set on A2780 [13] and 101% in data set [17]. The Activity in data set [1] is recorded as 102%; in data set [2], 94%; in data set [3], 148%; in data set [4], 104%; in data set [5] it was 79%; in data set [7] it was 147%. Also, the Activity in [8] was 242%; in [9] it was 53%; in [10] it was 86%. In addition, the viability at 10 µM is 77% in [14] and 20% in the data set on A2780 [16]. The viability at 2 µM came to 96% in data set [15] and 95% with A2780 [18].

For `C=C1[C@@H](OC(C)=O)CC[C@@]2(C)C[C@H](O)C3=C(C)C[C@H](OC(C)=O)[C@@H]([C@@H](OC(C)=O)[C@H]12)C3(C)C`, the pIC50 is 3.97 in the data set with HepG2, 4.90 in the data set with WI-38 VA13 and 3.98 in [6]. Further, the Activity in data set [1] is on record as 92%; in [2] it was 84%; in data set [3] it was 111%; in data set [4] it was 103%; in data set [5], 64%; in data set [7], 119%. Moreover, the Activity in data set [8] is 229%; in data set [9], 51%; in [10], 98%.

As to `C=C1[C@@H](OC(C)=O)CC[C@@]2(C)C[C@H](OC(C)=O)C3=C(C)C[C@H](OC(=O)/C=C/c4ccccc4)[C@@H]([C@@H](OC(C)=O)[C@H]12)C3(C)C`, the negative logarithm of the IC50 (pIC50) in the data set with HepG2 was less than 3.77; in the data set on WI-38 VA13, less than 3.77; in data set [6], 3.81. The Activity is reported as 95% in [1]; 87% in data set [2]; 125% in data set [3]; 123% in data set [4]; 75% in [5]; 140% in data set [7]. Besides, the results for the Activity in data set [8], in [9] and in data set [10] were 280%, 62% and 126%, respectively.

As for `C=C1[C@@H](OC(C)=O)CC[C@@]2(C)C[C@H](OC(=O)/C=C/c3ccccc3)C3=C(C)C[C@H](OC(=O)/C=C/c4ccccc4)[C@@H]([C@@H](OC(C)=O)[C@H]12)C3(C)C`, the negative logarithm of the IC50 (pIC50) (with HepG2; in the data set with WI-38 VA13; in [6]) was less than 3.83 in each case. The Activity was 91% in data set [1]; 83% in [2]; 80% in data set [3]; 83% in [4]; 49% in data set [5]; 92% in data set [7]. Also, the figures for the Activity in [8], in data set [9] and in data set [10] were 122%, 27% and 80%, respectively.

On to `C=C1[C@@H](OC(C)=O)CC[C@@]2(C)[C@@H](O)[C@H](OC(C)=O)C3=C(C)C[C@H](OC(C)=O)[C@@H]([C@@H](OC(C)=O)[C@H]12)C3(C)C`, for which the negative-log IC50 (pIC50) is 3.89 with HepG2, less than 3.72 with WI-38 VA13 and 3.89 in data set [6]. Further, the Activity in data set [1] is on record as 86%; in data set [2] it was 79%; in data set [3] it was 110%; in data set [4], 102%; in [5], 58%; in data set [7] it was 108%. In addition, the values for the Activity in data set [8], in data set [9] and in data set [10] were 168%, 37% and 101%, respectively.

`CC(=O)O[C@H]1C(=O)[C@@]2(C)[C@H]([C@H](OC(=O)c3ccccc3)[C@]3(O)C[C@H](OC(=O)[C@H](O)[C@@H](NC(=O)c4ccccc4)c4ccccc4)C(C)=C1C3(C)C)[C@]1(OC(C)=O)CO[C@@H]1C[C@@H]2O` [PACLITAXEL] had a pIC50 in [11] of 3.74.

As to `C=C1[C@@H](OC(C)=O)CC[C@@]2(C)C[C@H](O)C3=C(C)C[C@H](OC(=O)/C=C/c4ccccc4)[C@@H]([C@@H](OC(C)=O)[C@H]12)C3(C)C`, the pIC50 in the data set on HepG2 was 4.80; in the data set with WI-38 VA13, 4.43; in data set [11], 5.10; in data set [6], 4.87; with A2780 [12], 5.21. In addition, the viability at 0.2 µM in the data set on A2780 [13] turned out to be 89%; in data set [17], 105%. Besides, the Activity was 121% in data set [1]; 111% in data set [2]; 190% in data set [3]; 107% in data set [4]; 146% in [5]; 272% in [7]. The values for the Activity in data set [8], in data set [9] and in data set [10] were 527%, 116% and 132%, respectively. Also, the figures for the viability at 10 µM (in data set [14]; in the data set on A2780 [16]) were 38% and 27%, respectively. Moreover, the viability at 2 µM in data set [15] was 86%; in the data set with A2780 [18] it was 74%.

Consider `C=C1[C@@H](OC(C)=O)CC[C@@]2(C)C[C@H](OC(C)=O)C3=C(C)C[C@H](OC(C)=O)[C@@H]([C@@H](O)[C@H]12)C3(C)C`, for which the negative-log IC50 (pIC50) with HepG2 was 3.91; with WI-38 VA13, 3.98; in [6], 3.88. Moreover, the Activity in [1] is on record as 101%; in data set [2], 89%; in data set [3], 111%; in data set [4], 99%; in data set [5] it was 84%; in data set [7], 144%. The results for the Activity in [8], in data set [9] and in data set [10] were 259%, 74% and 99%, respectively.

As for `CC[C@]1(O)C[C@H]2CN(CCc3c([nH]c4ccccc34)[C@@](C(=O)OC)(c3cc4c(cc3OC)N(C=O)[C@H]3[C@@](O)(C(=O)OC)[C@H](OC(C)=O)[C@]5(CC)C=CCN6CC[C@]43[C@@H]65)C2)C1` [VINCRISTINE], the negative logarithm of the IC50 (pIC50) in [11] was 6.51; with A2780 [12] it was 8.51.

On to `C=C1[C@@H](OC(C)=O)CC[C@@]2(C)C[C@H](OC(=O)/C=C/c3ccccc3)C3=C(C)C[C@H](O)[C@@H]([C@@H](OC(C)=O)[C@H]12)C3(C)C`, for which the pIC50 in the data set with HepG2 is 4.82; in the data set with WI-38 VA13, 4.94; in [6], 4.14. Besides, the Activity was 114% in [1]; 105% in data set [2]; 113% in [3]; 109% in data set [4]; 102% in data set [5]; 190% in [7]. The Activity was 497% in data set [8], 110% in [9] and 113% in data set [10].
